Assay results as given in patent publication US20040006103A1, “Use of chloroquine, hydroxychloroquine and 4 amino-quinolinic derivatives to obtain a drug for the anti retroviral therapy, active towards HIV sensitive strains and towards HIV strains which are resistant to both nucleosidic and non-nucleosidic reverse transcriptase inhibitors and to proteases …” (VALPHARMA S.A., priority 2002, published 2004).
pEC50: −log10 of the molar value. Like-named read-outs stand apart in the source and are kept apart here.

Assays:
[1] = tested on: HIV clinical isolated, characterised by mutations in the RT gene inducing geno-phenotypic resistance to AZT; test: p24 production susceptibility test (ACTG protocol), Table 1; format: cell-based, HIV-1; details: for pEC50 / S.I. CQ / CQ (fold): PBMC; for pEC50: read-out: E.C.50 CQ; for S.I. CQ: I.C.50/E.C.50; for CQ (fold): ratio to HIV-IIIB
Text: (§1) For the phenotype of the nucleosidic, non-nucleosidic and proteases inhibitors was utilised a method which consider the use of human PBMC and the protocol standardised by the AIDS Clinical Trials Group, after verifying the genotype by sequence analysis.
(§2) In order to assay in vitro the susceptibility to chloroquine and hydroxychloroquine of the viral strains, it was used the protocol of the ACTG which is characterised by the measure, of the production of antigen p24 in strongly infected cells.
(§3) The susceptibility of the viral strains to chemotherapics was determined in cell cultures, prepared in 96 wells microplates, using, for the infection, 0.1 MOI.
(§4) The supernatant of the infected cultures (either in absence or in presence of different concentrations of chemotherapic) were tested for the production of p24 after 7 days, using an ELISA test which is commercially available.
(§5) The concentrations of chloroquine and hydroxychloroquine tested ranged from 0.5 to 15 uM. At the same time non-infected cells were incubated with concentrations of chloroquine and hydroxychloroquine ranging from 0 to 50 uM to evaluate the toxicity of the compound.
(§6) After 4 day from the infection, half the cellular medium was replaced with a medium containing the corresponding dilution of chloroquine and hydroxychloroquine. The percentage of inhibition of the HIV replication, induced by chloroquine and hydroxychloroquine, was determined, after 7 day from the infection, comparing the levels of p24 of this cultures and that of the control, infected and not treated with chloroquine and hydroxychloroquine.
(§7) Therefore, the E.C.50 of chloroquine and hydroxychloroquine expresses the concentration of chemotherapic that inhibits the 50% of production of p24 and the values were calculated using linear and non linear regression analysis (the significativity for the non linear regression was R^2>0.95).
(§8) In the same experimental conditions and in the same day, but with similar concentrations of chloroquine and hydroxychloroquine, it was evaluated the vitality of the infect cell cultures, and this was expressed as I.C.50.
(§9) I.C.50 (Inhibitory Concentration) indicates the concentration of the chemotherapic agent inhibiting the vitality of the cell cultures at a rate of 50%, when there is not infection.

[2] = tested on: HIV-1 clinical isolated, characterised by mutations in the RT gene inducing geno-phenotypic resistance to d4T; test: p24 production susceptibility test (ACTG protocol), Table 4; format: cell-based; details: for pEC50: Human immunodeficiency virus 1, PBMC, read-out: E.C.50 CQ; for S.I. CQ / Fen. CQ (fold): PBMC; for S.I. CQ: I.C.50/E.C.50; for Fen. CQ (fold): ratio to HIV-IIIB
Text: as §1, §2, §3, §4, §5, §6, §7, §8, §9

[3] = tested on: HIV-1 clinical isolated, characterised by mutations in the RT gene inducing geno-phenotypic resistance to ABC; test: p24 production susceptibility test (ACTG protocol), Table 5; format: cell-based; details: for pEC50: Human immunodeficiency virus 1, PBMC, read-out: E.C.50 CQ; for S.I. CQ / Fen. CQ (fold): PBMC; for S.I. CQ: I.C.50/E.C.50; for Fen. CQ (fold): ratio to HIV-IIIB
Text: as §1, §2, §3, §4, §5, §6, §7, §8, §9

[4] = tested on: HIV-1 strains geno-phenotypically resistant to EFV; test: p24 production susceptibility test, Table 7, MT-2 cells; format: cell-based; details: for pEC50: Human immunodeficiency virus 1, MT2, MT-2, read-out: E.C.50 CQ; for S.I. CQ / Fen. CQ (fold): MT-2; for S.I. CQ: I.C.50/E.C.50; for Fen. CQ (fold): ratio to HIV-IIIB
Text: as §1, §2, §3, §4, §5, §6, §7, §8, §9

[5] = tested on: HIV-1 clinical isolated, characterised by mutations in the protease gene inducing geno-phenotypic resistance to IDV; test: p24 production susceptibility test (ACTG protocol), Table 9; format: cell-based; details: for pEC50 / S.I. CQ / Fen. CQ (fold): PBMC; for pEC50: read-out: E.C.50 CQ; for S.I. CQ: I.C.50/E.C.50; for Fen. CQ (fold): ratio to HIV-IIIB
Text: as §1, §2, §3, §4, §5, §6, §7, §8, §9

[6] = tested on: viruses resistant to both reverse transcriptase and protease inhibitors; test: p24 production susceptibility test, summary for resistant viruses; format: cell-based, HIV-1; details: Human immunodeficiency virus 1, range
Protocol: as §2, §3
The supernatant of the infected cultures (either in absence or in presence of different concentrations of chemotherapic) were tested for the production of p24 after 7 days, using an ELISA test which is commercially available. […]
as §6, §7

[7] = Gen. M41I M184V L210W R221K T215Y
[8] = Gen. M41L D67N K70RM 184V T215F
[9] = Gen. K65R F77L Y115F Q151M M184V
[10] = Gen. K65R S68G F77L Y115F Q151M M184V
[11] = Gen. M41L D67N M184V L210W T215Y

`CCN(CC)CCCC(C)Nc1ccnc2cc(Cl)ccc12` (stereo not shown) [CQ, chloroquine] showed a pEC50 ([1]; Human immunodeficiency virus 1, PBMC, Gen. D67N K70R T215F K219Q) of 5.70, a pEC50 ([1]; Human immunodeficiency virus 1, PBMC, Gen. D 67 Ns K 70N T215F K219Q) of 5.52 and a pEC50 ([1]; Human immunodeficiency virus 1, PBMC, Gen. K70R T215F K219Q) of 5.74. The pEC50 ([1]; Human immunodeficiency virus 1, PBMC, Gen. M41I M184V L210W R221K T215Y) was 5.82, the pEC50 ([1]; Human immunodeficiency virus 1, PBMC, Gen. M41I T215Y) was 5.70 and the pEC50 ([1]; Human immunodeficiency virus 1, PBMC, Gen. M41L D67N K70RM 184V T215F) was 5.60. For the same compound, the EC50 ([1]; Human immunodeficiency virus 1, PBMC, read-out: E.C.50 CQ (uM), PBMC, Gen. M41LD 76N K70R T215Y) was 3 µM, the “S.I. CQ” value ([1]; Gen. D67N K70R T215F K219Q) was 4 and the “CQ (fold)” value ([1]; Gen. D67N K70R T215F K219Q) was 1.1X fold. The “S.I. CQ” value ([1]; Gen. D 67 Ns K 70N T215F K219Q) was 3, the “CQ (fold)” value ([1]; Gen. D 67 Ns K 70N T215F K219Q) was 2X fold and the “S.I. CQ” value ([1]; Gen. K70R T215F K219Q) was 5.5. For the same compound, the “CQ (fold)” value ([1]; Gen. K70R T215F K219Q) was 1.1X fold, the “S.I. CQ” value [1, 7] was 6 and the “CQ (fold)” value [1, 7] was 0.8X fold. For the same compound, the “S.I. CQ” value ([1]; Gen. M41I T215Y) was 4, the “CQ (fold)” value ([1]; Gen. M41I T215Y) was 1.1X fold and the “S.I. CQ” value [1, 8] was 3.6. The “CQ (fold)” value [1, 8] was 1.3X fold, the “S.I. CQ” value ([1]; Gen. M41LD 76N K70R T215Y) was 3.2 and the “CQ (fold)” value ([1]; Gen. M41LD 76N K70R T215Y) was 1.6X fold. The pEC50 [2, 9] was 5.46, the pEC50 ([2]; Gen. K65R F116Y Q151M) was 5.46 and the pEC50 ([2]; Gen. M41I T69SSS T215Y) was 5.55. The pEC50 ([2]; Gen. T69SSS T215Y) was 5.55, the pEC50 ([2]; Gen. V75I F77L F116Y Q151M) was 5.66 and the “S.I. CQ” value [2, 9] was 3.4. For the same compound, the “Fen. CQ (fold)” value [2, 9] was 2.3X fold, the “S.I. CQ” value ([2]; Gen. K65R F116Y Q151M) was 3.4 and the “Fen. CQ (fold)” value ([2]; Gen. K65R F116Y Q151M) was 2.3X fold. For the same compound, the “S.I. CQ” value ([2]; Gen. M41I T69SSS T215Y) was 3.4, the “Fen. CQ (fold)” value ([2]; Gen. M41I T69SSS T215Y) was 1.8X fold and the “S.I. CQ” value ([2]; Gen. T69SSS T215Y) was 3.4. For the same compound, the “Fen. CQ (fold)” value ([2]; Gen. T69SSS T215Y) was 1.8X fold, the “S.I. CQ” value ([2]; Gen. V75I F77L F116Y Q151M) was 3 and the “Fen. CQ (fold)” value ([2]; Gen. V75I F77L F116Y Q151M) was 1.5X fold. The pEC50 ([3]; Gen. K65R L74V M184V) was 5.74, the pEC50 [3, 10] was 5.60 and the pEC50 ([3]; Gen. L74V M184F) was 5.74. For the same compound, the pEC50 ([3]; Gen. L74V Y115F M184V) was 5.66, the pEC50 [3, 11] was 5.66 and the “S.I. CQ” value ([3]; Gen. K65R L74V M184V) was 5.5. For the same compound, the “Fen. CQ (fold)” value ([3]; Gen. K65R L74V M184V) was 1.2X fold, the “S.I. CQ” value [3, 10] was 3.6 and the “Fen. CQ (fold)” value [3, 10] was 1.6X fold. For the same compound, the “S.I. CQ” value ([3]; Gen. L74V M184F) was 5.5, the “Fen. CQ (fold)” value ([3]; Gen. L74V M184F) was 1.2X fold and the “S.I. CQ” value ([3]; Gen. L74V Y115F M184V) was 4. The “Fen. CQ (fold)” value ([3]; Gen. L74V Y115F M184V) was 1.2X fold, the “S.I. CQ” value [3, 11] was 4 and the “Fen. CQ (fold)” value [3, 11] was 1.4X fold. The pEC50 ([4]; Gen. K101D K103N) was 5.55, the pEC50 ([4]; Gen. K103N V108D) was 5.66 and the pEC50 ([4]; Gen. K103N Y181C) was 5.60. For the same compound, the pEC50 ([4]; Gen. K103N) was 5.66, the pEC50 ([4]; Gen. L100I K103N) was 5.49 and the pEC50 ([4]; Gen. Y181C) was 5.74. For the same compound, the “S.I. CQ” value ([4]; Gen. K101D K103N) was 7.8, the “Fen. CQ (fold)” value ([4]; Gen. K101D K103N) was 1.8X fold and the “S.I. CQ” value ([4]; Gen. K103N V108D) was 6.8. For the same compound, the “Fen. CQ (fold)” value ([4]; Gen. K103N V108D) was 1.4X fold, the “S.I. CQ” value ([4]; Gen. K103N Y181C) was 8 and the “Fen. CQ (fold)” value ([4]; Gen. K103N Y181C) was 1.6X fold. The “S.I. CQ” value ([4]; Gen. K103N) was 8.5, the “Fen. CQ (fold)” value ([4]; Gen. K103N) was 1.4X fold and the “S.I. CQ” value ([4]; Gen. L100I K103N) was 6.2. For the same compound, the “Fen. CQ (fold)” value ([4]; Gen. L100I K103N) was 2.1X fold, the “S.I. CQ” value ([4]; Gen. Y181C) was 8.5 and the “Fen. CQ (fold)” value ([4]; Gen. Y181C) was 1.2X fold. The pEC50 ([5]; Human immunodeficiency virus 1, PBMC, Gen. G48V V82A) was 5.60, the pEC50 ([5]; Human immunodeficiency virus 1, PBMC, Gen. I84V L90M) was 5.66 and the pEC50 ([5]; Human immunodeficiency virus 1, PBMC, Gen. K20R E35D M36I I54V V82T) was 5.74. The pEC50 ([5]; Human immunodeficiency virus 1, PBMC, Gen. V82F L90M) was 5.55, the EC50 ([5]; Human immunodeficiency virus 1, PBMC, read-out: E.C.50 CQ (uM), PBMC, Gen. L10R M46I L63P V82T) was 1.5 µM and the “S.I. CQ” value ([5]; Gen. G48V V82A) was 3.6. For the same compound, the “Fen. CQ (fold)” value ([5]; Gen. G48V V82A) was 1.3X fold, the “S.I. CQ” value ([5]; Gen. I84V L90M) was 4 and the “Fen. CQ (fold)” value ([5]; Gen. I84V L90M) was 1.2X fold. The “S.I. CQ” value ([5]; Gen. K20R E35D M36I I54V V82T) was 5.5, the “Fen. CQ (fold)” value ([5]; Gen. K20R E35D M36I I54V V82T) was 1X fold and the “S.I. CQ” value ([5]; Gen. L10R M46I L63P V82T) was 5.5. The “Fen. CQ (fold)” value ([5]; Gen. L10R M46I L63P V82T) was 1X fold, the “S.I. CQ” value ([5]; Gen. V82F L90M) was 3.4 and the “Fen. CQ (fold)” value ([5]; Gen. V82F L90M) was 1.5X fold. For the same compound, the pEC50 [6] was 5.46 to 5.82.
